From ChEMBL document CHEMBL1201862, “PubChem BioAssay data set” (2004)
Values joined by “and” are separate entries in the source; they are usually repeats but may differ in a detail not shown here. Equal values may be shown once. Active and inactive are the calls of the source.

Legend:
Cytochrome P450 1A2 = target: T1, Cytochrome P450 1A2 (Homo sapiens, UniProt P05177);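 note: PubChem cytochrome P450 panel assay, CYP1A2 panel member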
T1 sequence (P05177 whole entry): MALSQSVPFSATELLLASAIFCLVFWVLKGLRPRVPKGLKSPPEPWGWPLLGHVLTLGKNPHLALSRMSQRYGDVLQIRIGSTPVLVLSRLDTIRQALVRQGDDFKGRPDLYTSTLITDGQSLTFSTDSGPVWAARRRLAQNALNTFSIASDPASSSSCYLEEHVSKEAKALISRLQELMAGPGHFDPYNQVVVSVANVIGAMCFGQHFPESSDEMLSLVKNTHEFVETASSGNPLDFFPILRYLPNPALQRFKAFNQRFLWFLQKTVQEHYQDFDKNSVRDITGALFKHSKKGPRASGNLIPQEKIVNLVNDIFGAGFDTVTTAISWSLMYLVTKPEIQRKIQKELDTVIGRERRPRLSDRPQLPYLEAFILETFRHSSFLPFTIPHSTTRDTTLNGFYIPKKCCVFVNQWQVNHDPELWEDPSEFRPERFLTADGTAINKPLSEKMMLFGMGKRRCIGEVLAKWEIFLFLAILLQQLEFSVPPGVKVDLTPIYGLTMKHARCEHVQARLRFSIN

Cytochrome P450 2C9 = Cytochrome P450 2C9 (Homo sapiens, UniProt P11712)
Chain of Cytochrome P450 2C9 (P11712 whole entry): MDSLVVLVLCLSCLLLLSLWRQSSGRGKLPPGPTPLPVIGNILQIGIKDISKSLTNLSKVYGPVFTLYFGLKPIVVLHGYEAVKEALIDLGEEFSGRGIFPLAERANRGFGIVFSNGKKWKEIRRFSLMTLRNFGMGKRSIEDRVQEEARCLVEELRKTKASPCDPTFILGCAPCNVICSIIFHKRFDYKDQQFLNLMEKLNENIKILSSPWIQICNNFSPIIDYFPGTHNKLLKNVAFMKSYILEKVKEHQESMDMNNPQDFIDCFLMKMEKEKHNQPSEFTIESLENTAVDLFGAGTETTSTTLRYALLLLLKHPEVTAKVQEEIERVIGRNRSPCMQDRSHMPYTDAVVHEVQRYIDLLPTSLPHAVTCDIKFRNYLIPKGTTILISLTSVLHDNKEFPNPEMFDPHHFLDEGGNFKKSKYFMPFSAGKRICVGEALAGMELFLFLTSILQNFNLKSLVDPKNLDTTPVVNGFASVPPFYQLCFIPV

cells = assay type: functional
[1] = target: FAD-linked sulfhydryl oxidase ALR (Homo sapiens, UniProt P55789); experiment: inhibitors of human ALR sulfhydryl oxidase, dose response, biochemical, H2O2 detection, luminescence, cherry-pick (AID 493248)
Chain of FAD-linked sulfhydryl oxidase ALR (P55789 whole entry): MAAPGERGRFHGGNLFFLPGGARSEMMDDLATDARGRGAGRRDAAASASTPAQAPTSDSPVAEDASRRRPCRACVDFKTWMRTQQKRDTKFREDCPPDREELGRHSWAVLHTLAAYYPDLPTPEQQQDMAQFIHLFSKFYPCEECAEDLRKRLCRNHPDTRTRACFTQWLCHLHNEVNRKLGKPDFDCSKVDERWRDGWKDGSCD

[2] = control 3'UTR Renilla luciferase suppression, dose response, counter-screen for Shn3 inhibitor project, cell-based, Clone20-Shn3RL, cherry-picked (AID 624133); assay type: functional
[3] = HEp-2 cell cytotoxicity, dose response, cytotoxicity control for RSV inhibitor project, HTS (AID 2410); assay type: functional; conditions: human respiratory syncytial virus
[4] = Luminescence Cell-Based Dose Response HTS to Identify Activators of Luciferase Translation or Activity in H4 […] Cells. [Related pubchem assays: 1829 (Project Summary), 1814 (Primary HTS)]; assay type: functional
[5] = Luminescence Cell-Based Dose Confirmation HTS to Identify Activators of 5'UTR Stem-Loop Driven Alpha-Synuclein mRNA Translation in H4 Neuroglioblastoma Cells. [Related pubchem assays: 1829 (Project Summary), 1814 (Primary HTS)]; assay type: functional
H4 = experiment: Luminescence Cell-Based Dose Response HTS to Identify Activators of 5'UTR Stem-Loop Driven Prion Protein mRNA Translation in H4 Neuroglioblastoma Cells. [Related pubchem assays: 1829 (Project Summary), 1814 (Primary HTS)]; assay type: functional; conditions: Homo sapiens
[6] = inhibitors of firefly luciferase expression or activity, dose response, H4 neuroglioma cells, luminescence (AID 1990); assay type: functional, cell-based
[7] = inhibitors of SNCA 5'UTR-driven reporter translation, confirmation, H4 neuroglioma cells, luminescence (AID 1988); assay type: functional, cell-based
[8] = Luminescence Cell-Based Dose Response HTS to Identify Inhibitors of 5'UTR Stem-Loop Driven Prion Protein mRNA Translation in H4 Neuroglioblastoma Cells. [Related pubchem assays: 1827 (Project Summary), 1813 (Primary HTS)]; assay type: functional
[9] = target: T2, Heat shock factor protein 1 (Mus musculus, UniProt P38532); experiment: inhibition of MG132-induced HSE-luciferase signal, confirmation, cell-based, NIH3T3, luminescence, dose retest (AID 2382); assay type: functional;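 note: NIH3T3 fibroblasts with HSF1-driven luciferase reporter stressed by proteasome inhibitor MG132; luminescence from HSF1-driven luciferase expression after 8 hours of MG132 stress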
T2 sequence (P38532 whole entry): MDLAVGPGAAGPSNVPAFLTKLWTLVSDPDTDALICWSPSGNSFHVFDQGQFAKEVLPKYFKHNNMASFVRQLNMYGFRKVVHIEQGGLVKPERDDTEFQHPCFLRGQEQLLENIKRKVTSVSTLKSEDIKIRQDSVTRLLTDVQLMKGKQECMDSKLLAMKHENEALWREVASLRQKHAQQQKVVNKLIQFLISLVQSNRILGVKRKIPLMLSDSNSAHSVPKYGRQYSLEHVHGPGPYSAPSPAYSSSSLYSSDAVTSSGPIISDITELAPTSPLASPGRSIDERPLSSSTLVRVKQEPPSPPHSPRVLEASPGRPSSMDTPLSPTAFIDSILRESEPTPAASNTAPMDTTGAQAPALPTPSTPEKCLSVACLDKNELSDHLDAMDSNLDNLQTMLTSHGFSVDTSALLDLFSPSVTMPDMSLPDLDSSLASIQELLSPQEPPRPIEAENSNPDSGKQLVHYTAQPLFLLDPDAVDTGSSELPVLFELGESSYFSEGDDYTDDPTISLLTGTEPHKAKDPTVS

Cytochrome P450 3A4 = Cytochrome P450 3A4 (Homo sapiens, UniProt P08684);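 note: CYP3A4 tested as one member of a cytochrome P450 panel screen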
Chain of Cytochrome P450 3A4 (P08684 whole entry): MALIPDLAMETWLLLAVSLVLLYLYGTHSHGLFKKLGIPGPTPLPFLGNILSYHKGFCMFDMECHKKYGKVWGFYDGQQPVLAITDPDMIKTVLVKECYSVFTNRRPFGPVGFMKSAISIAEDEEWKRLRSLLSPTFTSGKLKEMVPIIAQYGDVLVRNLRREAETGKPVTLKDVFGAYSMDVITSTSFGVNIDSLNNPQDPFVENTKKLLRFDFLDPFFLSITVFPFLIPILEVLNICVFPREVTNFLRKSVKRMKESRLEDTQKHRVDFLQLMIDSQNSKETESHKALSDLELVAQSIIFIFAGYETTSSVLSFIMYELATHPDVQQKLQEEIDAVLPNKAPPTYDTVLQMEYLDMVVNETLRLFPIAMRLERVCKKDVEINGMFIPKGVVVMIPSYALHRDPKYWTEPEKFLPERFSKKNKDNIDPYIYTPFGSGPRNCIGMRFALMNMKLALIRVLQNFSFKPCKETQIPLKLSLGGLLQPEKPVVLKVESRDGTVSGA

Cytochrome P450 2C19 = Cytochrome P450 2C19 (Homo sapiens, UniProt P33261); experiment: Cytochrome panel assay with activity outcomes. Panel member name: p450-cyp2c19 Compounds with AC50 equal or less than 10 uM are considered active; assay type: functional
Chain of Cytochrome P450 2C19 (P33261 whole entry): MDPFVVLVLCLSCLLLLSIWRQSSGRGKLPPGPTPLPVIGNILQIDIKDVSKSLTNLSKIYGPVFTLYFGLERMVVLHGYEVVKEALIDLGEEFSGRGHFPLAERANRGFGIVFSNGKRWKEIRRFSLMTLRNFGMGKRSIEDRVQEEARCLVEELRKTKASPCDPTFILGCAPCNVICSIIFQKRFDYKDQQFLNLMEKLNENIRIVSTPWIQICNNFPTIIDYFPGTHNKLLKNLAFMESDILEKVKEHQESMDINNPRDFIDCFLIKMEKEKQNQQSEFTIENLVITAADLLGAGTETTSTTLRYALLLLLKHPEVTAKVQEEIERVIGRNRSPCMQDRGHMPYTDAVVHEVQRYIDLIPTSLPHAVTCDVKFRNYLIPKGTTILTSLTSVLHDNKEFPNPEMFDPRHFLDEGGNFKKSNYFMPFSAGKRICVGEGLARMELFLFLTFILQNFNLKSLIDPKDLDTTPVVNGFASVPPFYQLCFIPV

For `CCC/C=C(\CCC)C(NC(=O)c1ccc(C(F)(F)F)cc1)c1ccccc1` (configuration not stated), the AC50 (Cytochrome P450 1A2) was 25.1 µM (inconclusive) and the AC50 (Cytochrome P450 2C9) was 3.16 µM (inconclusive).
For `COc1cccc(COC(=O)CCNC(=O)c2ccc(Br)cc2)c1OC`, the IC50 (cells) was 15.4 µM (active).
For `Cc1cc(C)n(CCC(=O)N2CCCC(Nc3ccc(F)cc3)C2)n1` (configuration not stated), the AC50 [1] was 33.3 µM (active).
With `CC(C)N1CCN(Cc2c[nH]c3ccccc23)CC1CCO` (configuration not stated) the AC50 [2] was 28.6 µM (active).
For `CC(CN1CCN(c2ccccc2)CC1)c1ccccc1` (configuration not stated), the AC50 [1] was 66.9 µM (active).
With `COc1ccc(N(C)C(=O)c2cc3c(s2)-c2ccccc2OC3)c(OC)c1` the CC50 [3] was 48.3 µM (active).
With `C=CCNC(=O)/C(=C\c1ccc2c(c1)OCO2)NC(=O)c1ccc(Br)cc1` the AC50 (Cytochrome P450 1A2) was 14.1 µM (inconclusive) and the AC50 (Cytochrome P450 2C9) was 5.62 µM (inconclusive).
In the case of `O=C(CCN1C[C@H]2CC[C@H](CC2)C1)c1cccs1`, the AC50 (Cytochrome P450 1A2) is reported as 5.01 µM (inconclusive).
For `Nc1cccc(OCc2nc(N)nc(N)c2-c2ccc(Cl)cc2)c1`, the AC50 (Cytochrome P450 1A2) was 0.158 µM (inconclusive).
For `O=C(O)c1ccc(Sc2nnc(-c3cccc(Br)c3)o2)c([N+](=O)[O-])c1`, the AC50 [1] was 0.044 µM (active).
For `Cc1cccc(-n2c(N)c(C(=O)NCCN3CCOCC3)c3nc4ccccc4nc32)c1`, the EC50 [4] was > 120 µM (not active), the EC50 [5] was > 120 µM (not active) and the EC50 (H4) was > 120 µM (not active).
In the case of `Fc1cccc2sc(Nc3nc4ccccc4s3)nc12`, the EC50 [4] is reported as 4.21 µM (active), the EC50 [5] is reported as 0.106 µM (active) and the EC50 (H4) is reported as 1.58 µM (active).
In the case of `C/C(=N/OCC(=O)Nc1ccccc1)c1cccs1`, the EC50 [4] is reported as 26.4 µM (active), the EC50 [5] is reported as 13.4 µM (active) and the EC50 (H4) is reported as 16.8 µM (active).
For `N#CC1CCCc2c1[nH]c1ccc([N+](=O)[O-])cc21` (configuration not stated), the EC50 [6] was 11.7 µM (active), the EC50 [7] was 24.5 µM (active) and the EC50 [8] was > 120 µM (not active). The CC50 [3] was 27.8 µM (active).
For `CCOc1ccc(NC(=O)COC(=O)C2(C)CC2(Cl)Cl)c([N+](=O)[O-])c1` (configuration not stated), the IC50 (cells) was 38.4 µM (active) and the EC50 [9] was > 195 µM (not active).
In the case of `Cc1cc(C)nc(Nc2n[nH]c(-c3ccc(N)cc3)n2)n1`, the AC50 [1] is reported as 0.311 µM (active).
With `CCCCN1CC(=O)C(c2nc3ccccc3s2)=C1N` the EC50 [4] was 30.8 µM (active), the EC50 [5] was 13.8 µM (active) and the EC50 (H4) was > 120 µM (not active).
With `Cc1cc(NS(=O)(=O)c2ccccc2)c(C)c(Cl)c1O` the CC50 [3] was 8.98 µM (active).
In the case of `CN1CCC(c2c[nH]c3ccc(O)cc23)CC1`, the AC50 (Cytochrome P450 1A2) is reported as 31.6 µM (inconclusive) and the AC50 (Cytochrome P450 3A4) is reported as 15.8 µM (inconclusive) and 31.6 µM (inconclusive).
For `CC(=O)Nc1ccc(S(=O)(=O)N2CCC(c3nc4cc(C)ccc4[nH]3)CC2)cc1`, the CC50 [3] was 15.4 µM (active).
For `Cc1cn(CCC(=O)Nc2ccc(N3CCOCC3)cc2)c2ccccc12`, the EC50 [4] was 16.1 µM (active), the EC50 [5] was 11.5 µM (active) and the EC50 (H4) was 13.9 µM (active).
In the case of `COc1ccc(N2CCN(C(=O)Cc3ccc(C)cc3)CC2)cc1`, the AC50 [1] is reported as 5.48 µM (active).
For `O=C(CCc1ccccc1)NC1C2CC3CC(C2)CC1C3` (configuration not stated), the IC50 (cells) was 18.6 µM (active).
With `N#Cc1cc2cc3c(cc2nc1N1CCCCC1)OCCO3` the EC50 [4] was 1.82 µM (active), the EC50 [5] was 0.139 µM (active) and the EC50 (H4) was 1.42 µM (active).
With `Sc1nnc(-c2ccccn2)n1/N=C/c1ccc(Br)s1` the AC50 [1] was 10.5 µM (active).
For `C=CCN1C[C@H](C)N([C@@H](c2ccccc2)c2ccc(C(=O)N(CC)CC)cc2)C[C@H]1C`, the AC50 (Cytochrome P450 1A2) was 31.6 µM (inconclusive), the AC50 (Cytochrome P450 2C9) was 31.6 µM (inconclusive) and the AC50 (Cytochrome P450 2C19; read-out: AC50) was 0.0631 µM (inconclusive). For the same compound, the AC50 (Cytochrome P450 3A4) was 2.51 µM (inconclusive).
With `Cn1c(=O)c(-c2cccs2)nc2cnc(N3CCOCC3)nc21` the AC50 (Cytochrome P450 1A2) was 5.01 µM (inconclusive).
In the case of `COc1ccc(/C=C2\SC(=S)N(Cc3cccnc3)C2=O)cc1C`, the EC50 [4] is reported as 11.1 µM (active), the EC50 [5] is reported as 38 µM (active) and the EC50 (H4) is reported as 20.1 µM (active).
For `Cc1ccc(S(=O)(=O)Oc2cc(S(=O)(=O)O)cc3cc(S(=O)(=O)O)cc(N)c23)cc1`, the AC50 (Cytochrome P450 1A2) was 2 µM (inconclusive).
With `CCn1c2ccccc2c2cnc(/N=C/N(C)C)c(C#N)c21` the CC50 [3] was 37 µM (active).
For `NC(=NO)c1ccccc1N1CCC(Cc2ccccc2)CC1`, the AC50 [1] was 27.4 µM (active).
For `Cc1ccc(C(=O)C2=C(O)C(=O)N(Cc3cccnc3)C2c2ccccc2[N+](=O)[O-])cc1` (configuration not stated), the EC50 [4] was 14.9 µM (active), the EC50 [5] was 30.1 µM (active) and the EC50 (H4) was > 120 µM (not active).
For `CCN(CC)CC(=O)Nc1ccc2c(c1)Nc1ccccc1CC2`, the AC50 [1] was 0.221 µM (active).
With `CSc1ccc(CNc2ncc(-c3cccc([N+](=O)[O-])c3)n2C)cc1` the IC50 (cells) was 21.8 µM (active).
In the case of `Cc1ccc(C(=O)NC(=S)N2CC(C)OC(C)C2)cc1[N+](=O)[O-]` (configuration not stated), the AC50 (Cytochrome P450 1A2) is reported as 15.8 µM (inconclusive), the AC50 (Cytochrome P450 2C9) is reported as 14.1 µM (inconclusive) and the AC50 (Cytochrome P450 2C19) is reported as “inconclusive”. For the same compound, the AC50 (Cytochrome P450 3A4) was 22.4 µM (inconclusive).
With `COC(=O)c1ccc(S(=O)(=O)N2CCc3ccccc32)cc1` the EC50 [4] was > 60 µM (not active), the EC50 [5] was > 120 µM (not active) and the EC50 (H4) was > 120 µM (not active).
